# Reference: US20100119609A1, “METHODS, COMPOSITIONS, AND FORMULATIONS FOR THE TREATMENT OF THYROID EYE DISEASE” (priority 2006, published 2010)
# Key:
# [1] = compared with albuterol 5, a short acting hydrophilic beta agonist; cited from earlier work
# [2] = tested on: cultured human adipocytes; experiment: In vitro lipolysis assay (glycerol release) in cultured adipocytes; type: cell-based; conditions: for increase in lipolysis relative to negative control: glycerol in Assay Buffer
# Procedure: In the in vitro lipolysis assay, glycerol was detected in cell culture media via a spectrophotometric measurement after chemical oxidation with hydrogen peroxide. Glycerol was measured over a three hour time period. Levels of lipolysis in cultured human adipocytes were tested after exposure to a beta agonist alone, a glucocorticosteroid alone, or the combination of the two for one or more preincubation periods as described in more detail below.
# Human subcutaneous adipocytes were used in the lipolysis assay. Adipose tissue was harvested from liposuction or lipectomy and pre-adipocytes were isolated as follows. Briefly, fat tissue was minced and incubated at 37° C. in Krebs-Ringer bicarbonate buffer containing 1% bovine serum albumin and 0.1% collagenase in an oxygen-rich shaking chamber (5% CO2; 75 strokes/min) for 1 hour. The suspension was filtered through a 400 tim nylon mesh and centrifuged for 1 mm at 100 g. The pre-adipocytes in the […] were washed twice with and then plated in 96 well plates at a density of cells/well. The pre-adipocytes were cultured in maintenance medium for seven days as they differentiated into adipocytes.
# At −21 hours before the lipolysis assay, medium was removed from each well and replaced with 75 μl of Maintenance Medium containing appropriate drug or DMSO (vehicle) concentrations (see Experimental Design section below). Each test drug or control treatment was applied to 8 wells/group (12 treatment groups per 96-well plate). At −3 hours prior to the lipolysis assay, each well was washed two times with Wash Buffer (200 μl/wash), filled with test or control solutions made up in Assay Buffer (75 μl/well), and then incubated for three hours, i.e., until measurement of glycerol content in the Assay Buffer. For some groups, a drug was only added for the three hour incubation period (see Experimental and Control Groups Below).
# The glycerol content of the Assay Buffer from each well following the incubation was used as an index for lipolysis, where an increase in glycerol indicated lipolysis. Glycerol levels were assayed colorimetrically via a commercial glycerol assay kit (Randox Laboratory, United Kingdom) and quantified by comparison to a glycerol serial dilution standard curve (3 μM-200 μM). Glycerol concentrations for each well were normalized to cell density.
# In each of the following control or experimental groups n=8 corresponding to the glycerol measurements for 8 wells from a 96-well cell culture plate.
# [3] = 18 hour incubation, Salmeterol 10^−6 M or 10^−8 M, Budesonide 10^−6 M, Isoproterenol 10^−6 M
# [4] = three hour incubation, isoproterenol 10^−6 M
Molecule,lipophilicity relative to albuterol [1],"effect on lipolysis in cultured adipocytes [2, 3]","increase in lipolysis relative to negative control [2, 4]",effect on lipolysis in cultured adipocytes ([2]; three hour incubation),"lipolysis compared with isoproterenol (positive control) [2, 4]"
"OCc1cc(C(O)CNCCCCCCOCCCCc2ccccc2)ccc1O (racemic) [Salmeterol, ±2-(hydroxymethyl)-4-[1-hydroxy-2-[6-(4-phenylbutoxy)hexylamino]ethyl]-phenol]","at least 10,000 times",,,,
"CC(C)NCC(O)c1ccc(O)c(O)c1 (stereo not shown) [Isoproterenol, isoproterenol]",,decreased lipolysis,about 2.5 fold,,
budesonide,,slight suppression of lipolysis,up to 1.5 fold,dose-dependent induction of lipolysis,lower than that observed for Isoproterenol
